Measured values reported in patent US7776827B2 (ImmuneRegen Biosciences, Inc., priority 2007, dated 2010).

Columns and labels:
Format in all cases: cell-based
[1] = test system: CFU-Mk (platelet precursors); assay: Colony forming unit (CFU) assay, human bone marrow cells (Example 6); settings: in the presence of substance P
Description: (§1) As stem cells differentiate in response to growth factors, they form a colony of cells with distinct morphologies that can be visualized using a microscope. This study examined the formation of three different progenitor cell populations, erythrocytes, platelets and granulocytes/macrophages.
(§2) Bone marrow aspirates were obtained from three healthy donors between 18 and 35 years of age following appropriate guidelines and protocols. Bone marrow mononuclear cells were isolated using a Ficoll-Hypaque density gradient, separating red blood cells from the others. Cells from each donor were processed independently and used for setting up individual experiments to assess the effects, if any, of donor variability.
(§3) Cells (1×10^5) were plated in duplicate onto 35 mm tissue culture plates for each condition tested and set up as described in Rameshwar et al. 1993, Blood. 81:2, 391-398. Erythroid and granulocyte/macrophage cultures were plated using methylcellulose and megakaryocyte cultures (platelet precursors) used a collagen-based support (StemCell Technologies, Vancouver, Canada, catalogue #04973). […] CP 99,994 (Pfizer) was used as a neurokinin-1 receptor antagonist and SR 48968 (Sanofi) was used as a neurokinin-2 receptor antagonist.
Cultures were set up with limited cytokines and growth factors which would promote differentiation of one progenitor per plate. […]

[2] = test system: seven human-derived hematopoietic cell populations; assay: CFC assay, three donors, overall statements (Example 5); settings: highest doses (1 nM)
Experimental: Compound was dissolved in 1 ml of Iscove's Modified Dulbecco's Medium (IMDM) and a serial dose response was prepared in single log doses so that the final dose in culture ranged from 1 nanoMolar (nM) to 1×10^−16 M. All working dilutions were performed in IMDM. Cell cultures from each donor were started at different times and a fresh solution of HOMSPERA® was prepared for each individual experiment.
Starting with human bone marrow aspirate, the mononuclear cell (MNC) fraction from each aspirate was separated from whole bone marrow using Ficoll-Paque density gradient centrifugation.
The colony-forming cell (CFC) assay was performed using optimal growth factor/cytokine concentrations. The reagents and conditions were similar to those used in Example 4, except that no ATP measurements were performed. The MNC fraction from each bone marrow donor was dissolved in IMDM and cultured at a concentration of 5,000 cells/well in a Culture Master Mix (HemoGenix, Inc., Colorado Springs, Colo.). […]
The mean, standard deviation and percent coefficient of variation was calculated for all groups, transposed and plotted as a function of donor. The percent from control values were calculated and also plotted as a function of donor. […]

[3] = test system: human bone marrow-derived hematopoietic cell populations; assay: CFC differentiation and ATP proliferation assays, overall statements (Example 4)
Experimental: The compound was dissolved in 1 ml of Iscove's Modified Dulbecco's Medium (IMDM) and a serial dose response prepared in single log doses so that the final dose in culture ranged from 1 nM to 1×10^−16 M. All working dilutions were performed in IMDM.
Starting with human bone marrow aspirate, the mononuclear cell (MNC) fraction was separated from the whole bone marrow using Ficoll-Paque density gradient centrifugation. […] The cell concentration was adjusted so that the final cell concentration in culture was 10,000 cells/well.
Human bone marrow MNC was dissolved in IMDM and cultured at a concentration of 10,000 cell/well in a CAMEO™-96 Master Mix (HemoGenix, Inc., Colorado Springs, Colo.). […]
Prior to processing all 96-well plates, the total colony counts/well were manually enumerated by microscopy. The mean, standard deviation and percent coefficient of variation was calculated for all groups, transposed and plotted. The intracellular ATP (iATP) concentration was measured after manual enumeration. The output of the luminometer is non-standardized Relative Luminescence Units (RLU). […] This allowed the RLU values to be automatically calculated into standardized ATP (μM) units. For both the RLU and ATP values derived from each well, the luminometer software calculated the mean, standard deviation and percent coefficient of variation.

BFU-E = assay: Colony forming unit (CFU) assay, human bone marrow cells (Example 6); settings: FIG. 1; control = zero level
Description: as §1, §2
as §3, with “antagonist. […]” for “antagonist.”

CFU-E = assay: as above; settings: FIG. 2; control = zero level
Description: as §1, §2
as §3, with “antagonist. […]” for “antagonist.”

COc1ccccc1CN[C@H]1CCCN[C@H]1c1ccccc1 [CP-99,994]
effect of receptor antagonist on substance P stimulation of platelet colony formation [1]: blocks the stimulatory activity of substance P

CC(C)C[C@H](NC(=O)CN(C)C(=O)[C@H](Cc1ccccc1)NC(=O)[C@H](Cc1ccccc1)NC(=O)[C@H](CCC(N)=O)NC(=O)[C@H](CCC(N)=O)NC(=O)[C@@H]1CCCN1C(=O)[C@H](CCCCN)NC(=O)[C@@H]1CCCN1C(=O)[C@@H](N)CCCNC(=N)N)C(=O)N[C@@H](CCS(C)(=O)=O)C(N)=O [HOMSPERA®]
toxicity [2]: no apparent toxicity at the highest doses
toxicity ([3]; B-CFC and T-CFC, levels tested): do not demonstrate toxicity at the levels tested
cytotoxicity ([3]; most of populations, 14 days, 1 nM to 1×10^−16 M): apparent absence of distinct cytotoxicity

CC(=O)NC1(c2ccccc2)CCN(CC[C@H](CN(C)C(=O)c2ccccc2)c2ccc(Cl)c(Cl)c2)CC1 [SR48968]
effect of receptor antagonist on substance P stimulation of platelet colony formation [1]: showed no effect on substance P activity in enhancing platelet colony formation

Arg Pro Lys Pro Gln Gln Phe Phe Gly Leu Met [substance P]
BFU-E colony formation, increase from control values (BFU-E): ~60%
CFU-E colony formation, enhancement from control values (CFU-E): about 70%
